Key:
[1] = Cmax in male C57BL/6 mouse at 10 mg/kg, po measured after 24 hrs by UPLC/MS/MS analysis; type: ADME, organism-based; conditions: in vivo
[2] = Tmax in male C57BL/6 mouse at 10 mg/kg, po measured after 24 hrs by UPLC/MS/MS analysis; type: ADME, organism-based; conditions: in vivo
[3] = AUC (0 to 24 hrs) in male C57BL/6 mouse at 10 mg/kg, po measured after 24 hrs by UPLC/MS/MS analysis; type: ADME, organism-based; conditions: in vivo
Galectin-3 [4] = biological target: Galectin-3 (Mus musculus, UniProt P16110); assay: Inhibition of his-tagged N-terminal recombinant mouse Gal-3 preincubated for 30 mins followed by Biotin-ASF addition and measured after 1 hr by HTRF assay
Galectin-1 = Galectin-1 (Homo sapiens, UniProt P09382); assay: Inhibition of his-tagged N-terminal human Gal-1 preincubated for 30 mins followed by Biotin-ASF addition and measured after 1 hr by HTRF assay
Galectin-9 = Galectin-9 (Homo sapiens, UniProt O00182); assay: Inhibition of his-tagged N-terminal human Gal-9 preincubated for 30 mins followed by Biotin-ASF addition and measured after 1 hr by HTRF assay
[5] = Permeability of the compound at pH 5.5 incubated for 4 hrs by PAMPA; type: ADME; conditions: for Papp at 4 h: PAMPA, pH 5.5, read-out: permeability
[6] = Permeability of the compound at pH 7.4 incubated for 4 hrs by PAMPA; type: ADME; conditions: for Papp at 4 h: PAMPA, pH 7.4, read-out: permeability; for permeability: pampa, pH 7.4, 4 h
Galectin-3 [7] = biological target: Galectin-3 (Homo sapiens, UniProt P17931); assay: Inhibition of his-tagged N-terminal recombinant human Gal-3 preincubated for 30 mins followed by Biotin-ASF addition and measured after 1 hr by HTRF assay
[8] = Permeability of the compound in human Caco-2 cells across apical to basolateral side at pH 7.4 incubated for 2 hrs by LC-MS/MS analysis; type: ADME, cell-based; conditions: Caco-2, pH 7.4, read-out: permeability
[9] = Permeability of the compound in human Caco-2 cells across basolateral to apical side at pH 7.4 incubated for 2 hrs by LC-MS/MS analysis; type: ADME, cell-based; conditions: Caco-2, pH 7.4, read-out: permeability
[10] = Permeability of the compound across apical to basolateral side in human Caco-2 cells assessed as drug recovery at pH 7.4 incubated for 2 hrs by LC-MS/MS analysis; type: ADME, cell-based; conditions: Caco-2, pH 7.4, read-out: Drug recovery
[11] = Permeability of the compound across basolateral to apical side in human Caco-2 cells assessed as drug recovery at pH 7.4 incubated for 2 hrs by LC-MS/MS analysis; type: ADME, cell-based; conditions: Caco-2, pH 7.4, read-out: Drug recovery

Sequence of Galectin-1 (P09382 whole entry): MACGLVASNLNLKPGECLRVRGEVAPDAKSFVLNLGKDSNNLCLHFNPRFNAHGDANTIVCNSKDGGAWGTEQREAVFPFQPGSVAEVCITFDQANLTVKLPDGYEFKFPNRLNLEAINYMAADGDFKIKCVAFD
Sequence of Galectin-3 (Mus musculus, UniProt P16110) (P16110 whole entry): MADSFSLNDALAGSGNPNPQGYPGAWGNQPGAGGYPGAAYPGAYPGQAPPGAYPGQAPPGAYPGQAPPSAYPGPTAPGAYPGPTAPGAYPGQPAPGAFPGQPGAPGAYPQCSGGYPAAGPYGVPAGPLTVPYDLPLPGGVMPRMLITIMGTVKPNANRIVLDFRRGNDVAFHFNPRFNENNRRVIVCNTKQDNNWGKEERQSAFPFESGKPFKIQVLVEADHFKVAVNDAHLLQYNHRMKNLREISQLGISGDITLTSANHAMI
Sequence of Galectin-9 (O00182 whole entry): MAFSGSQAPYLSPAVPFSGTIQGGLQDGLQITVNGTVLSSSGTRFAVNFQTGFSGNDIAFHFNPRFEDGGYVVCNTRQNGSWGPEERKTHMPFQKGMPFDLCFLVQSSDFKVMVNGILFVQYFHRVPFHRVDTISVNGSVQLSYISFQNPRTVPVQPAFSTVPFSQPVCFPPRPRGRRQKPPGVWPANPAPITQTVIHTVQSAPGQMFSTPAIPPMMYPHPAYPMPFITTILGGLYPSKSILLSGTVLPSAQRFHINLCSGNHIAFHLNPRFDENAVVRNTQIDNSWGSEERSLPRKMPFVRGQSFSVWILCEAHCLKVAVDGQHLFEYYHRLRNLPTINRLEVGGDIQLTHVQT
Sequence of Galectin-3 (Homo sapiens, UniProt P17931) (P17931 whole entry): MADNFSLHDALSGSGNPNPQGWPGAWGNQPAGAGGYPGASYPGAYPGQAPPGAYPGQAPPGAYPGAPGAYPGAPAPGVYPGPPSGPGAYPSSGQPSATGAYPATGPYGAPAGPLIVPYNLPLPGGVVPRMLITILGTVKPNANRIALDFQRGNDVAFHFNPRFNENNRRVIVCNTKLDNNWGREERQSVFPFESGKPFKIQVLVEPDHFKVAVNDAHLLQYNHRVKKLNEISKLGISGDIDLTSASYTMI

| Structure (SMILES) | IC50 (Galectin-3 [4]) [µM] | Papp at 4 h [5] [×10⁻⁶ cm/s] | Papp at 4 h [6] [×10⁻⁶ cm/s] | IC50 (Galectin-3 [7]) [µM] | other results |
| --- | --- | --- | --- | --- | --- |
| OC[C@H]1O[C@H](Sc2ccc(Cl)c(Cl)c2)[C@H](O)[C@@H](n2cc(-c3cc(F)c(F)c(F)c3)nn2)[C@H]1O |  |  |  |  | Cmax [1]: 6300 nM; Tmax [2]: 7 h; AUC(0-t) at 24 h [3]: 84 µM·h |
| Cc1nc([C@@H]2O[C@H](CO)[C@H](O)[C@H](n3cc(-c4cc(F)c(Cl)c(F)c4)nn3)[C@H]2O)n(-c2cc(Cl)ccc2C(F)(F)F)n1 |  |  |  |  | Tmax [2]: 3 h |
| CO[C@@H]1[C@@H](n2cc(-c3cc(F)c(Cl)c(F)c3)nn2)[C@@H](O)[C@@H](CO)O[C@H]1c1nncn1-c1cc(Cl)ccc1C(F)(F)F | 0.16 |  |  |  | IC50 (Galectin-1): 7 µM; IC50 (Galectin-9): 7 µM |
| CO[C@@H]1[C@@H](n2cc(-c3ccc(Cl)c(F)c3F)nn2)[C@@H](O)[C@@H](CO)O[C@H]1c1nncn1-c1cc(Cl)ccc1OC(F)(F)F | 0.1 | 54 | 49 |  | Cmax [1]: 3000 nM; Tmax [2]: 3 h; AUC(0-t) at 24 h [3]: 16 µM·h; IC50 (Galectin-1): 2 µM; IC50 (Galectin-9): 2.4 µM |
| OC[C@H]1O[C@@H](c2nncn2-c2cc(Cl)ccc2OC(F)(F)F)[C@H](O)[C@@H](n2cc(-c3ccc(Br)c(F)c3F)nn2)[C@H]1O | 0.062 | 21 | 18 |  |  |
| OC[C@H]1O[C@@H](c2nncn2-c2cc(Cl)ccc2C(F)(F)F)[C@H](OCC(F)(F)C(F)F)[C@@H](n2cc(-c3ccc(Br)c(F)c3F)nn2)[C@H]1O | 0.11 | 68 | 88 |  |  |
| OC[C@H]1O[C@@H](c2nncn2-c2cc(Cl)ccc2C(F)(F)F)[C@H](O)[C@@H](n2cc(-c3ccc(Br)c(F)c3F)nn2)[C@H]1O | 0.069 | 7 | 7 |  |  |
| CO[C@@H]1[C@@H](n2cc(-c3ccc(Br)c(F)c3F)nn2)[C@@H](O)[C@@H](CO)O[C@H]1c1nncn1-c1cc(Cl)ccc1C(F)(F)F | 0.052 | 33 | 28 | 0.009 |  |
| OC[C@H]1O[C@@H](c2nncn2-c2cc(Cl)ccc2Cl)[C@H](O)[C@@H](n2cc(-c3cc(F)c(Cl)c(F)c3)nn2)[C@H]1O | 0.35 | 3.6 | 1.7 |  |  |
| OC[C@H]1O[C@@H](c2nncn2-c2cc(Cl)ccc2OC(F)(F)F)[C@H](O)[C@@H](n2cc(-c3ccc(Cl)c(F)c3F)nn2)[C@H]1O | 0.1 |  | 27 | 0.013 |  |
| OC[C@H]1O[C@@H](c2nncn2-c2cc(Cl)ccc2C(F)(F)F)[C@H](O)[C@@H](n2cc(-c3ccc(Cl)c(F)c3)nn2)[C@H]1O | 0.1 | 1.8 | 2.1 |  |  |
| OC[C@H]1O[C@@H](c2ncnn2-c2ccc(Cl)c(Cl)c2)[C@H](O)[C@@H](n2cc(-c3cc(F)c(F)c(F)c3)nn2)[C@H]1O |  |  |  |  | Cmax [1]: 410 nM; Tmax [2]: 3 h; AUC(0-t) at 24 h [3]: 1.8 µM·h |
| CO[C@@H]1[C@@H](n2cc(-c3ccc(Br)c(F)c3)nn2)[C@@H](O)[C@@H](CO)O[C@H]1c1nncn1-c1cc(Cl)ccc1C(F)(F)F | 0.071 | 20 | 22 | 0.022 |  |
| Cc1nnc([C@@H]2O[C@H](CO)[C@H](O)[C@H](n3cc(-c4cc(F)c(Cl)c(F)c4)nn3)[C@H]2O)n1-c1cc(Cl)ccc1C(F)(F)F (stereo in doubt; 4) | 0.067 |  |  |  | permeability ([6]; 4 h): 4.4 ×10⁻⁶ cm/s; IC50 (Galectin-1): 2.5 µM; IC50 (Galectin-9): 4 µM |
| Cc1nnc([C@@H]2O[C@H](CO)[C@H](O)[C@H](n3cc(-c4cc(F)c(Cl)c(F)c4)nn3)[C@H]2O)n1-c1cc(Cl)ccc1C(F)(F)F (stereo in doubt; 5) | 7 |  |  | 1.3 | permeability ([6]; 4 h): 1.6 ×10⁻⁶ cm/s |
| OC[C@H]1O[C@@H](c2n[nH]c(=S)n2-c2cc(Cl)ccc2OC(F)(F)F)[C@H](O)[C@@H](n2cc(-c3ccc(Cl)c(F)c3F)nn2)[C@H]1O (stereo in doubt; 16) | 0.05 | 1.1 | 0.2 | 0.007 | Papp A→B at 2 h [8]: < 1.5 ×10⁻⁶ cm/s; Papp B→A at 2 h [9]: 3.2 ×10⁻⁶ cm/s; recovery at 2 h [10]: 67%; recovery at 2 h [11]: 81% |
| OC[C@H]1O[C@@H](c2n[nH]c(=S)n2-c2cc(Cl)ccc2OC(F)(F)F)[C@H](O)[C@@H](n2cc(-c3ccc(Cl)c(F)c3F)nn2)[C@H]1O (stereo in doubt; 17) | 0.72 |  |  | 0.07 | permeability [6]: 0.2 ×10⁻⁶ cm/s |
| OC[C@H]1O[C@@H](c2n[nH]c(=S)n2-c2cc(Cl)ccc2C(F)(F)F)[C@H](O)[C@@H](n2cc(-c3ccc(Br)c(F)c3F)nn2)[C@H]1O (stereo in doubt; 18) | 0.025 |  | 0.1 | 0.0069 |  |
| OC[C@H]1O[C@@H](c2n[nH]c(=S)n2-c2cc(Cl)ccc2C(F)(F)F)[C@H](O)[C@@H](n2cc(-c3ccc(Br)c(F)c3F)nn2)[C@H]1O (stereo in doubt; 19) | 1 |  |  | 0.076 | permeability ([6]; 4 h): 0.2 ×10⁻⁶ cm/s |
| Cn1nc([C@@H]2O[C@H](CO)[C@H](O)[C@H](n3cc(-c4ccc(Br)c(F)c4F)nn3)[C@H]2O)n(-c2cc(Cl)ccc2C(F)(F)F)c1=S (stereo in doubt; 20) | 0.04 | 12 |  |  | Cmax [1]: 1900 nM; Tmax [2]: 3 h; AUC(0-t) at 24 h [3]: 12 µM·h; permeability ([6]; 4 h): 8.6 ×10⁻⁶ cm/s; IC50 (Galectin-1): 2.4 µM; IC50 (Galectin-9): 7.2 µM; Papp A→B at 2 h [8]: < 1.5 ×10⁻⁶ cm/s; Papp B→A at 2 h [9]: 15 ×10⁻⁶ cm/s; recovery at 2 h [10]: 59%; recovery at 2 h [11]: 80% |
| Cn1nc([C@@H]2O[C@H](CO)[C@H](O)[C@H](n3cc(-c4ccc(Br)c(F)c4F)nn3)[C@H]2O)n(-c2cc(Cl)ccc2C(F)(F)F)c1=S (stereo in doubt; 21) | 3.8 |  |  |  | permeability ([5]; pampa, pH 5.5, 4 h, 4 h): 22 ×10⁻⁶ cm/s; permeability ([6]; 4 h): 28 ×10⁻⁶ cm/s |

Source: ChEMBL document CHEMBL5576131, “Atropisomerism Observed in Galactose-Based Monosaccharide Inhibitors of Galectin-3 Comprising 2-Methyl-4-phenyl-2,4-dihydro-3H-1,2,4-triazole-3-thione” (J Med Chem, 2024)
